Measured values reported in US20230247997A1 (published 2023).

| Structure (SMILES) | melting point |
| --- | --- |
| CCSC1=NC(=CC(N)=O)NS1 | 140 to 142 °C |
| CCSc1nc(-c2ccc([N+](=O)[O-])cc2)ns1 | 103 to 104 °C |
| COc1cccc(-c2nsc(OC)n2)c1 | 73 to 75 °C |
| CCSc1nc(-c2cnccn2)ns1 | 60 to 62 °C |
| CCSc1nc(OC)ns1 | 35 to 37 °C |
| CCSc1nc(-c2ccc(Cl)cc2)ns1 | 44 to 45 °C |
| CCSc1nc(-c2ccncc2)ns1 | 49 to 50 °C |
| CCSc1nc(N(C)C)ns1 | 116 to 118 °C |
| CCOC(=O)C=C1N=C(SCC)SN1 | 128 to 129 °C |

Results, then the compound that gave them:

| melting point | Structure (SMILES) |
| --- | --- |
| 35 to 36 °C | CCSc1nc(-c2ccc(F)cc2)ns1 |
| 109 to 111 °C | COc1nc(-c2ccccc2)nc(-c2ccccc2)n1 |
| 54 to 56 °C | CCSc1nc(-c2ccc(OC)cc2)ns1 |
| 126 to 128 °C | COc1cccc(-c2nc(OC)nc(-c3cccc(OC)c3)n2)c1 |
| 138 to 140 °C | COc1nc(-c2ccc([N+](=O)[O-])cc2)ns1 |
| 173 to 174 °C | COc1nc(-c2ccc(F)cc2)nc(-c2ccc(F)cc2)n1 |
| 105 to 107 °C | CSc1nc(-c2ccc(Cl)cc2)ns1 |
| 36 to 37 °C | CCSc1nc(-c2ccc(Br)cc2)ns1 |
| 192 to 194 °C | COc1nc(-c2ccc(Cl)cc2)nc(-c2ccc(Cl)cc2)n1 |
| 137 to 139 °C | COc1nc(-c2ccc(Cl)cc2)ns1 |
